Common to all, as to format: in vivo, rat
The test system of experiment [1] is MUC1. The experiment is described as follows: Mucin gene expression by real-time PCR in conjunctival epithelium after eye drop administration. Particulars: 10 μl of 0.5 mg/ml eye drops twice a day for 5 days, right eye vs saline left eye; corrected by β-actin; FIG. 1. On the procedure:
(§1) α-humulene was administered to the eye in the following way: 6 male rats with a body weight of about 200 g were used, and the left eye was designated as the control group and the right eye was designated as the experimental group. Samples as eye drops were administered to the eye twice a day for 5 days and 10 μl of physiological saline was administered to the left eye (control group) and 10 μl of 0.5 mg/ml α-humulene diluted in physiological saline was administered to the right eye (experimental group) as eye drops. Animals were sacrificed to extract the conjunctival epithelium containing the fornix conjunctiva from the eyes and the extracted tissue was isolated and used for molecular biological analysis.
(§2) RNA was extracted from the ocular tissues of rats according to the manufacturers instructions using RNeasy mini kit from Qiagen (USA). The cDNA was synthesized using the cDNA synthesis kit of Qiagen (USA) from the isolated RNA, and then it was used for real-time polymerase chain reaction (real-time PCR). Real-time PCR was performed according to the manufacturer's instructions using Qiagen's Rotor-Gene Q 2 plex real-time DNA amplifier and Qiagen's two-step PCR SYBR kit, and the amount of amplified DNA was quantitatively compared. Specifically, after pre-denaturation at 95° C. for 5 minutes based on the cycling protocol, each 40 cycles were repeated at 95° C. for 5 seconds and at 60° C. for 10 seconds, and it was performed in the order of the melting step rising for 3 minutes from 60° C. to 95° C. The product amplified by the real-time PCR was quantified using the Delta delta Ct method, and corrected by the expression amount of β-actin for each sample.
(In general: Quantitative PCR measures a nucleic acid by following its amplification.)

The test system of experiment [2] is MUC4. The experiment is described as above. Conditions: 10 μl of 0.5 mg/ml eye drops twice a day for 5 days, right eye vs saline left eye; corrected by β-actin; FIG. 1. On the procedure:
as §1, §2

The subject of experiment [3] is MUC6. Described as above. Conditions: 10 μl of 0.5 mg/ml eye drops twice a day for 5 days, right eye vs saline left eye; corrected by β-actin; FIG. 1. On the procedure:
as §1, §2

Experiment [4] deals with animal model of dry eye. The experiment is described as follows: Inhibition and treatment effect on dry corneal epithelial damage, tear amount by tear test strip. Particulars: 10 μl of 0.5 mg/ml eye drop solution for 2 weeks, FIG. 2. On the procedure: For experiments on dry corneal epithelial damage, an animal model of dry eye was prepared. It was induced by instill 1% atropine sulfate and 0.1% benzalkonium chloride twice a day for 2 weeks. After administration of the dry eye inducer, the experimental animals were applied by ocular administration according to the above-described administration method at an interval of 1 hour.
After administration of the sample for 2 weeks, the animals were anesthetized with isoflurane, and then the tear amount of each rat was measured using a Shrimer tear test strip.

The structures appear in SMILES notation.

For `C/C1=C\CC/C(C)=C/CC(C)(C)/C=C/C1` [α-humulene], the “expression of MUC1” value in experiment [1] is “increased significantly”. Moreover, the “expression of MUC4” value in experiment [2] is recorded as “increased significantly”. Moreover, the “expression of MUC6” value in experiment [3] was “increased significantly”. For the same molecule, the amount of tears result in experiment [4] (AS/BAC-induced dry eye, tear test strip) is “significant difference in the amount of tears”. For the same molecule, the “therapeutic effect on dry corneal epithelial damage” value in experiment [4] (dry eye induced by 1% atropine sulfate/0.1% benzalkonium chloride (AS/BAC)) was “showed the therapeutic effect of the corneal epithelium”.

Values taken from patent US11766410B2, “Composition for preventing or treating dry eye syndrome containing α-humulene as active ingredient” (INJE UNIVERSITY INDUSTRY-ACADEMIC COOPERATION FOUNDATION, priority 2018, dated 2023).
